Measured values published in US20250352550A1, “SUBSTITUTED FUROPYRIDINES FOR THERAPEUTIC USE” (MASARYKOVA UNIVERZITA, priority 2022, published 2025).

Tests used:
Type in all cases: biochemical
FLT3 = molecular target: T1, FLT3 (Homo sapiens, UniProt P36888); test: HotSpot radiometric kinase assay (Reaction Biology), FLT3; conditions: 4 nM kinase, substrate ABLtide 20 μM, 33P-ATP, 120 minutes at room temperature
T1 construct: purchased Reaction Biology
T1 sequence (P36888 27-993): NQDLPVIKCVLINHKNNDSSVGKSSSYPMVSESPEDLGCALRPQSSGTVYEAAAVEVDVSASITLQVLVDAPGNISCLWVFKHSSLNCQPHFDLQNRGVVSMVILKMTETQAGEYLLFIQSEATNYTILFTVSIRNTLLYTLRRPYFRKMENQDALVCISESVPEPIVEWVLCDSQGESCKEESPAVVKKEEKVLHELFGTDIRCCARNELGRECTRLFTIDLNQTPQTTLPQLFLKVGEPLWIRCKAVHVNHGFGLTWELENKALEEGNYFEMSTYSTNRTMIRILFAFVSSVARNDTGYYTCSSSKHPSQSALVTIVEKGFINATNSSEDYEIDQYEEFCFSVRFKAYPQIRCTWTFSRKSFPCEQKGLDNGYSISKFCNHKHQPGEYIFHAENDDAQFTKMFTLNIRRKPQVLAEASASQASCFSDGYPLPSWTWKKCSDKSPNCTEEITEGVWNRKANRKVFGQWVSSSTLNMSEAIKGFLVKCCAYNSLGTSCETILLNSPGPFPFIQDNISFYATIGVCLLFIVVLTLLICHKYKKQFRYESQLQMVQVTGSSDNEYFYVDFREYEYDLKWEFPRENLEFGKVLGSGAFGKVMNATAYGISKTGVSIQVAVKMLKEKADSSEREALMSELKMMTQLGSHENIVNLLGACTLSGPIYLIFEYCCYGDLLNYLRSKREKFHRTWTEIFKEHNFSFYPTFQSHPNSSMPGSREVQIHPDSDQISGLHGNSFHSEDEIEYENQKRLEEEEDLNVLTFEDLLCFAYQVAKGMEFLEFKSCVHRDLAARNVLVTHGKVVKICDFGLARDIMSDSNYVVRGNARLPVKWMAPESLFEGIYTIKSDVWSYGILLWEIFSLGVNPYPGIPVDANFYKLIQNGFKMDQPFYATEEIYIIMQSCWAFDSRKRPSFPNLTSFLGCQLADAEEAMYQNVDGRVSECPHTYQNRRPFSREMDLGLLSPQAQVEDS
Method: (§1) The compounds were profiled in the HotSpot radiometric assays (Reaction Biology).
(§2) Briefly, • 1. Substrate indicated in Table 1 was dissolved in freshly prepared reaction buffer (20 mM HEPES (pH 7.5), 10 mM MgCl2, 1 mM EGTA, 0.01% Brij35, 0.02 mg/ml BSA, 0.1 mM Na3VO4, 2 mM DTT, 1% DMSO) at the concentration indicated in Table 1. • 2. Corresponding kinase (concentration indicated in Table 1) was added and the mixture was gently mixed. • 3. Tested compound dissolved in DMSO was added into the kinase reaction mixture. • 4. ^33P-ATP (specific activity 0.01 μCi/μL final) was added into the reaction mixture to initiate the reaction. • 5. The kinase reaction was incubated for 120 minutes at room temperature. • 6. Reaction mixture was spotted onto P81 ion exchange paper (Whatman K 3698-915). • 7. The filters were extensively washed with 0.754 phosphoric acid. • 7. The radioactive phosphorylated substrate remaining on the filter paper was measured.
(§3) Kinase activity data were expressed as the percent remaining kinase activity in tested samples compared to the vehicle (DMSO) reactions. IC50 values and curve fits were obtained using Prism4 Software (GraphPad).
(§4) Table 2 summarizes the inhibitory activities of indicated compounds tested in the in vitro kinase assays described above.

KHS/MAP4K5 = molecular target: T2, KHS/MAP4K5 (Homo sapiens, UniProt Q9Y4K4); test: HotSpot radiometric kinase assay (Reaction Biology), KHS/MAP4K5; conditions: 1.5 nM kinase, substrate MBP 20 μM, 33P-ATP, 120 minutes at room temperature
T2 construct: purchased Reaction Biology
Method: as §1, §2, §3, §4

DDR1 = molecular target: T3, DDR1 (Homo sapiens, UniProt Q08345); test: HotSpot radiometric kinase assay (Reaction Biology), DDR1; conditions: 200 nM kinase, substrate IRS1tide 20 μM, 33P-ATP, 120 minutes at room temperature
T3 construct: purchased Reaction Biology
Method: as §1
as §2, with “Reaction mixture was spotted onto P81 ion exchange paper (Whatman K 3698-915). • 7. The filters were extensively washed with 0.754 phosphoric acid. • 7.” left out
as §3

T3 sequence (Q08345 19-913): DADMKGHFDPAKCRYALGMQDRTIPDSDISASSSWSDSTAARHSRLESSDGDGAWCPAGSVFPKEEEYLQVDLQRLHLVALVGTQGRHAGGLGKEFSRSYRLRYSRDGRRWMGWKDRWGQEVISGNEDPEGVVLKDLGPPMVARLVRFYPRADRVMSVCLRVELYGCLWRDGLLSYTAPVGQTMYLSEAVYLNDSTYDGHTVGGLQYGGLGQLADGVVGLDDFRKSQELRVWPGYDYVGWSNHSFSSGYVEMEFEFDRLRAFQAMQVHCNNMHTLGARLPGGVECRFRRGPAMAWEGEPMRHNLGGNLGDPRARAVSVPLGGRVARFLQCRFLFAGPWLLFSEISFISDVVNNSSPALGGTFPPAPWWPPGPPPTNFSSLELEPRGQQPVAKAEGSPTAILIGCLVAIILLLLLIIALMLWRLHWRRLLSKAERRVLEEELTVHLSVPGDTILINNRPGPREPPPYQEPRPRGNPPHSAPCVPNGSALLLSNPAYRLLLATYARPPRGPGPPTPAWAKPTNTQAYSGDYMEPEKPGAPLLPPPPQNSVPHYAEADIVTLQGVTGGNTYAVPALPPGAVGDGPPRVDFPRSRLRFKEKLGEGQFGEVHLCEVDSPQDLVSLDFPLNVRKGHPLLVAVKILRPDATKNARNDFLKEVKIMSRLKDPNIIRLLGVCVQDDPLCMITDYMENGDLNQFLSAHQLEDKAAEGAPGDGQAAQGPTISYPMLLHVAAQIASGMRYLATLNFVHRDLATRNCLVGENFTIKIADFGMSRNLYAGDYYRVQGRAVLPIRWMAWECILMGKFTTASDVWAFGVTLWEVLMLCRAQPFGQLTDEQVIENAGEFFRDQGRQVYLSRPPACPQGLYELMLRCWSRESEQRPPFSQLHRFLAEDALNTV
T2 sequence (Q9Y4K4 whole entry): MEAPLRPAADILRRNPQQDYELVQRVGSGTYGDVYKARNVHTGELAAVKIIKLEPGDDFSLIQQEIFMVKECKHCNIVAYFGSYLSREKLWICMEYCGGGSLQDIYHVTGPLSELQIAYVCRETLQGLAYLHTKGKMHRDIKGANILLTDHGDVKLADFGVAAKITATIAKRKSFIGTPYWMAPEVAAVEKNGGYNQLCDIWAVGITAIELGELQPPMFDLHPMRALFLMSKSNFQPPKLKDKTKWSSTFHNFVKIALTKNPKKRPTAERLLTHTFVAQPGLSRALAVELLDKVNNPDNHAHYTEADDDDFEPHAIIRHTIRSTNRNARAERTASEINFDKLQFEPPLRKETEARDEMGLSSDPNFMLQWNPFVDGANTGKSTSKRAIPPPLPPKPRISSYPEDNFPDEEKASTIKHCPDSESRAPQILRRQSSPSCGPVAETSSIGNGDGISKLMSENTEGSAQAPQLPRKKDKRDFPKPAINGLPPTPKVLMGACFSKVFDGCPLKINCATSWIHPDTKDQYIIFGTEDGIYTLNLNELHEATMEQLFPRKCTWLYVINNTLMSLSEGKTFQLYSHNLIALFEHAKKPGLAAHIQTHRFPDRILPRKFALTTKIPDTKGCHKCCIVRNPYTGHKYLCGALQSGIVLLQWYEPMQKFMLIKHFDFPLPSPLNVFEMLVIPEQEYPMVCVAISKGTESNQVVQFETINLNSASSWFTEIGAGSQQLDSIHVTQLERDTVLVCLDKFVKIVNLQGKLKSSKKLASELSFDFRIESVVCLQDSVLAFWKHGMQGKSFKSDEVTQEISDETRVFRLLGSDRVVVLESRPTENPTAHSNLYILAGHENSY

IC50 (FLT3) [nM] | IC50 (KHS/MAP4K5) [nM] | IC50 (DDR1) [nM] | Compound
53 | 934 | 187 | CNc1cccc(-c2coc3cc(-c4ccc(N5CCN(C)CC5)cc4)cnc23)c1 [Preparative Example 110, N-methyl-3-(6-(4-(4-methylpiperazin-1-yl)phenyl)furo[3,2-b]pyridin-3-yl)aniline]
207 | 538 | 301 | CN(C)C(=O)c1cccc(-c2coc3cc(-c4ccc(N5CCNCC5)cc4)cnc23)c1 [Preparative Example 54, N,N-dimethyl-3-(6-(4-(piperazin-1-yl)phenyl)furo[3,2-b]pyridin-3-yl)benzamide]
377 | 181 | – | CN1CCN(c2ccc(-c3cnc4c(-c5ccc(NC(=O)N(C)C)cc5)coc4c3)cc2)CC1 [Preparative Example 253, 3,3-dimethyl-1-(4-{6-[4-(4-methylpiperazin-1-yl)phenyl]furo[3,2-b]pyridin-3-yl}phenyl)urea]
73 | 896 | 272 | CN(C)S(=O)(=O)c1cccc(-c2coc3cc(-c4ccc(N5CCNCC5)cc4)cnc23)c1 [Preparative Example 61, N,N-dimethyl-3-(6-(4-(piperazin-1-yl)phenyl)furo[3,2-b]pyridin-3-yl)benzenesulfonamide]
21 | 167 | 528 | CN1CCN(c2ccc(-c3cnc4c(-c5cc(C(N)=O)ccc5F)coc4c3)cc2)CC1 [Preparative Example 211, 4-fluoro-3-(6-(4-(4-methylpiperazin-1-yl)phenyl)furo[3,2-b]pyridin-3-yl)benzamide]
– | 804 | 808 | CC(c1ccccc1)c1coc2cc(-c3ccc(N4CCN(C)CC4)cc3)cnc12 (racemic) [Preparative Example 203, 1-methyl-4-{4-[3-(1-phenylethyl)furo[3,2-b]pyridin-6-yl]phenyl}piperazine]
49 | 906 | 116 | COc1cccc(-c2coc3cc(-c4ccc(N5CCNCC5)cc4)cnc23)c1 [Preparative Example 14, 3-(3-methoxyphenyl)-6-(4-(piperazin-1-yl)phenyl)furo[3,2-b]pyridine]
717 | – | 966 | FC(F)(F)c1cccc(-c2coc3cc(-c4ccc(N5CCNCC5)cc4)cnc23)c1 [Preparative Example 73, 6-(4-(piperazin-1-yl)phenyl)-3-(3-(trifluoromethyl)phenyl)furo[3,2-b]pyridine]
269 | – | 70 | CN1CCN(c2ccc(-c3cnc4c(-c5ccccc5)c(-c5ccncc5)oc4c3)cc2)CC1 [Preparative Example 223, 1-methyl-4-{4-[3-phenyl-2-(pyridin-4-yl)furo[3,2-b]pyridin-6-yl]phenyl}piperazine]
21 | – | 198 | CS(=O)(=O)NCc1cccc(-c2coc3cc(-c4ccc(N5CCNCC5)cc4)cnc23)c1 [Preparative Example 125, N-(3-(6-(4-(piperazin-1-yl)phenyl)furo[3,2-b]pyridin-3-yl)benzyl)methanesulfonamide]
373 | – | 620 | CN1CCN(c2ccc(-c3cnc4c(Cc5ccccc5)coc4c3)cc2)CC1 [Preparative Example 186, 3-benzyl-6-(4-(4-methylpiperazin-1-yl)phenyl)furo[3,2-b]pyridine]
649 | – | 869 | FC(F)(F)Oc1cccc(-c2coc3cc(-c4ccc(N5CCNCC5)cc4)cnc23)c1 [Preparative Example 113, 6-(4-(piperazin-1-yl)phenyl)-3-(3-(trifluoromethoxy)phenyl)furo[3,2-b]pyridine]
22 | – | 157 | CN1CCN(c2ccc(-c3cnc4c(-c5cccc(CC(N)=O)c5)coc4c3)cc2)CC1 [Preparative Example 154, 2-(3-(6-(4-(4-methylpiperazin-1-yl)phenyl)furo[3,2-b]pyridin-3-yl)phenyl)acetamide]
101 | – | 213 | CN1CCN(c2ccc(-c3cnc4c(-n5ccnc5)coc4c3)cc2)CC1 [Preparative Example 231, 1-{4-[3-(1H-imidazol-1-yl)furo[3,2-b]pyridin-6-yl]phenyl}-4-methylpiperazine]
90 | – | 160 | N#Cc1cccc(-c2coc3cc(-c4ccc(N5CCNCC5)cc4)cnc23)c1 [Preparative Example 20, 3-(6-(4-(piperazin-1-yl)phenyl)furo[3,2-b]pyridin-3-yl)benzonitrile]
99 | – | 284 | CN1CCN(c2ccc(-c3cnc4c(-c5cccc([S+](C)[O-])c5)coc4c3)cc2)CC1 (centres unmarked) [Preparative Example 181, 6-(4-(4-methylpiperazin-1-yl)phenyl)-3-(3-(methylsulfinyl)phenyl)furo[3,2-b]pyridine]
146 | – | 347 | CN1CCN(c2ccc(Nc3cnc4c(-c5ccccc5)coc4c3)cc2)CC1 [Preparative Example 101, N-(4-(4-methylpiperazin-1-yl)phenyl)-3-phenylfuro[3,2-b]pyridin-6-amine]
25 | – | 294 | c1cncc(-c2coc3cc(-c4ccc(N5CCNCC5)cc4)cnc23)c1 [Preparative Example 11, 6-(4-(piperazin-1-yl)phenyl)-3-(pyridin-3-yl)furo[3,2-b]pyridine]
78 | – | 206 | CC(=O)NCc1cccc(-c2coc3cc(-c4ccc(N5CCN(C)CC5)cc4)cnc23)c1 [Preparative Example 137, N-(3-(6-(4-(4-methylpiperazin-1-yl)phenyl)furo[3,2-b]pyridin-3-yl)benzyl)acetamide]
118 | – | 773 | CN1CCN(c2ccc(-c3cnc4c(-c5cccc(CS(=O)(=O)N(C)C)c5)coc4c3)cc2)CC1 [Preparative Example 145, N,N-dimethyl-1-(3-(6-(4-(4-methylpiperazin-1-yl)phenyl)furo[3,2-b]pyridin-3-yl)phenyl)methane-sulfonamide]
37 | – | 305 | CCCCOC(=O)c1cccc(-c2coc3cc(-c4ccc(N5CCNCC5)cc4)cnc23)c1 [Preparative Example 167, butyl 3-(6-(4-(piperazin-1-yl)phenyl)furo[3,2-b]pyridin-3-yl)benzoate]
21 | – | 365 | c1cc(-c2coc3cc(-c4ccc(OCCN5CCCCC5)cc4)cnc23)ccn1 [Preparative Example 171, 6-(4-(2-(piperidin-1-yl)ethoxy)phenyl)-3-(pyridin-4-yl)furo[3,2-b]pyridine]
832 | – | 209 | c1ccc(-c2ccccc2-c2coc3cc(-c4ccc(N5CCNCC5)cc4)cnc23)cc1 [Preparative Example 161, 3-([1,1′-biphenyl]-2-yl)-6-(4-(piperazin-1-yl)phenyl)furo[3,2-b]pyridine]
142 | – | 98 | O=[N+]([O-])c1cccc(-c2coc3cc(-c4ccc(N5CCNCC5)cc4)cnc23)c1 [Preparative Example 40, 3-(3-nitrophenyl)-6-(4-(piperazin-1-yl)phenyl)furo[3,2-b]pyridine]
